Results reported in patent publication US20120284809A1, “KNOCK DOWN MODEL OF DICKKOPF HOMOLOGUE 3 (Dkk3) FOR ASSESSING ROLE OF SAID Dkk3 IN SPERMATOGENESIS AND SEX REVERSAL” (National Institute of Immunology, priority 2011, published 2012).

System: spermatogenesis in Dkk3 knock down model
Experiment: Testosterone replacement in Dkk3 knock down model
Format: in vivo, non human vertebrate
Settings: 5 mg intramuscularly
Experimental: Serum testosterone concentrations from the Dkk3 knock down model and wild-type can be assessed at 10 weeks of age. Blood can be obtained through retro orbital bleeding before sacrificing the model. Serum testosterone can be assayed using a modified testosterone immunoassay (RIA) system in triplicate. […] For testosterone replacement, Dkk3 knock down model can be injected intramuscularly with 5 mg of testosterone undecanoate. Controls may be injected with castor oil. Blood can be taken after one month of the injection and serum testosterone levels may be measured.

CCCCCCCCCCC(=O)O[C@H]1CC[C@H]2[C@@H]3CCC4=CC(=O)CC[C@]4(C)[C@H]3CC[C@]12C [testosterone undecanoate]
Sperm counts vs Dkk3 knock down model (not up to wild type control levels): marginal increase | degree of spermatogenesis tubule disruption (histology) vs castor oil treated controls (one month): did not showed any improvement
